Experimental data reported in ChEMBL document CHEMBL1201862, “PubChem BioAssay data set” (2004).
Calls of active or inactive are those of the source.

Columns and labels:
[1] = Trypanosoma cruzi growth suppression in host cells – NIH3T3 host cells, beta-gal luminescence, confirmation (AID 2044); format: functional, cell-based;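 also: intracellular parasites grown in NIH/3T3 mouse fibroblasts as host cells; luminescent beta-galactosidase reporter signal from transgenic T. cruzi replicating inside host cells; inhibitors lower the luminescence signal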
[2] = molecular target: T1, Short transient receptor potential channel 4 (Mus musculus, UniProt Q9QUQ5); assay: calcium entry via TRPC4 opening agents – cell-based, HEK293 TRPC4/mu-opioid, Fluo-4 calcium, dose response (AID 434937); format: functional
T1 sequence (Q9QUQ5 whole entry): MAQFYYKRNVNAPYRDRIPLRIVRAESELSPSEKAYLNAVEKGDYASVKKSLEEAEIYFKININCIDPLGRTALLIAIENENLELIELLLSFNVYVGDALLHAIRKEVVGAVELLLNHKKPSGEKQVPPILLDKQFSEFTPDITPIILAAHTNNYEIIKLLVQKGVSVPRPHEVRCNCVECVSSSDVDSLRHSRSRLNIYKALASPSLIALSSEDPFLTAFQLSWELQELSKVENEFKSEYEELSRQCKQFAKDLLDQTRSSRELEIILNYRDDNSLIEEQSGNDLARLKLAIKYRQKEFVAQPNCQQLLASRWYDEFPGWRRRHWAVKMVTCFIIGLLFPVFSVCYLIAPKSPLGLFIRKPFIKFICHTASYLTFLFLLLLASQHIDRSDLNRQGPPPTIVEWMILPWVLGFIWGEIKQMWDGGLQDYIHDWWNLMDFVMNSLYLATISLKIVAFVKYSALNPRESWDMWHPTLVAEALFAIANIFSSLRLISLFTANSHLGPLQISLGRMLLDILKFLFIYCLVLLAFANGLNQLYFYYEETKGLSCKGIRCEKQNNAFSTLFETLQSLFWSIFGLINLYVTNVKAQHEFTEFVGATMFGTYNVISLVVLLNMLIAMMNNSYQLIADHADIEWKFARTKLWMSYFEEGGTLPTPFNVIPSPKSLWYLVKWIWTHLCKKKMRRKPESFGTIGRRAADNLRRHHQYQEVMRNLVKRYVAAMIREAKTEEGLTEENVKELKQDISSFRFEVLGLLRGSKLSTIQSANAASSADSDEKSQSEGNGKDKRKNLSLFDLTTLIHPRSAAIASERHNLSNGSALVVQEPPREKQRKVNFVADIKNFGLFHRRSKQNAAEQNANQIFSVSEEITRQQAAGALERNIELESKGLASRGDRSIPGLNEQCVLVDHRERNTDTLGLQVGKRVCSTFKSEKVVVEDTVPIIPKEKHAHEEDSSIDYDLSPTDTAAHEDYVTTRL

[3] = molecular target: 5-hydroxytryptamine receptor 5A (Homo sapiens, UniProt P47898); assay: Counterscreen for agonists of OPRM1-OPRD1 heterodimerization: luminescence-based cell-based high throughput dose response assay to identify agonists of 5-hydroxytryptamine (serotonin) 5A receptor (HTR5A). [Related pubchem assays (depositor defined):AID504326, AID504355, AID504692, AID504904, AID504905]; format: functional
5-hydroxytryptamine receptor 5A, sequence (P47898 whole entry): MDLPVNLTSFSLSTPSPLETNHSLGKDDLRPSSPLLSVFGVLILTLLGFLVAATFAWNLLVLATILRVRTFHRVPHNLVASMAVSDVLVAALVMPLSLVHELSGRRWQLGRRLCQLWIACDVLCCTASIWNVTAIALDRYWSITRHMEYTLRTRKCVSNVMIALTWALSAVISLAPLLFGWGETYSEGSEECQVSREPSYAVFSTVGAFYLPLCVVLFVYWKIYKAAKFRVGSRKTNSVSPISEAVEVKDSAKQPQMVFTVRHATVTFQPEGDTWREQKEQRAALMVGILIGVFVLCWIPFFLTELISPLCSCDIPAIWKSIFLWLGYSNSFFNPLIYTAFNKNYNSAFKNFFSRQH

[4] = NIH3T3 cell viability loss – ATP luminescence, mouse fibroblasts, counter-screen, dose response (AID 2010); format: functional, cell-based;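 also: cells exposed to compound for about 90 hours before reading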
[5] = Vero E6 cell cytotoxicity, dose response, cytotoxicity control for non-replicating M. tuberculosis project, secondary assay (AID 492998); format: functional, VeroE6; settings: Vero C1008
Mu-type opioid receptor = Mu-type opioid receptor (Homo sapiens, UniProt P35372); assay: (§1) Counterscreen for agonists of heterodimerization of the mu 1 (OPRM1) and delta 1 (OPRD1) opioid receptors: Luminescence-based cell-based high throughput dose response assay to identify agonists of OPRM1 homodimerization.; format: functional
Mu-type opioid receptor, sequence (P35372 whole entry): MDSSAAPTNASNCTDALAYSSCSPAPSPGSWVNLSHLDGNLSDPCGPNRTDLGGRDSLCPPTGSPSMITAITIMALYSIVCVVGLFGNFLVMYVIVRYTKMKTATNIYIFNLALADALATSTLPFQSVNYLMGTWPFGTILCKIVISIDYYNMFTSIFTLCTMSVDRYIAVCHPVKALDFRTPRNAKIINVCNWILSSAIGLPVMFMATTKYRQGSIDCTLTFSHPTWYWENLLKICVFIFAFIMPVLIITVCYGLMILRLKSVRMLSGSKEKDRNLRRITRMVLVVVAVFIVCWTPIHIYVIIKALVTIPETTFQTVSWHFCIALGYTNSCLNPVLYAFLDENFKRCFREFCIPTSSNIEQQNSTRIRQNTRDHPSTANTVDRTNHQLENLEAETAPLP

[6] = molecular target: Delta-type opioid receptor (Homo sapiens, UniProt P41143); assay: as §1, with “of OPRD1” for “of OPRM1”, “homodimerization. [Related pubchem assays (depositor defined):AID504326, AID504355, AID504692, AID504904, AID504905]” for “homodimerization.”; format: functional
Delta-type opioid receptor, sequence (P41143 whole entry): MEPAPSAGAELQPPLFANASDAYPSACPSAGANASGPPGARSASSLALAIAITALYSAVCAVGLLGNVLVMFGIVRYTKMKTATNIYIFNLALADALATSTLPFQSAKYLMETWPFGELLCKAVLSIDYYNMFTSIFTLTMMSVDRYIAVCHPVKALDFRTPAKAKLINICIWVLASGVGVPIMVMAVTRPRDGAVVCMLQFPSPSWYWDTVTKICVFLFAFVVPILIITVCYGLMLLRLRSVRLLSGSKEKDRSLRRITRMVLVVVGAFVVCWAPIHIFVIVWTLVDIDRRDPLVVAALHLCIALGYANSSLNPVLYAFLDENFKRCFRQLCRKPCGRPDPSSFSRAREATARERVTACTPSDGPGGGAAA

[7] = HepG2 cell cytotoxicity, dose response, cytotoxicity control for non-replicating M. tuberculosis project (AID 489018); format: functional; settings: Mycobacterium tuberculosis
[8] = loss of viability in HepG2 cells – cell-based, CellTiter-Glo, cherry-picked, cytotoxicity control for Shn3 inhibitor project, dose response (AID 624134); format: functional
[9] = reduction of Shn3 3'UTR-driven luciferase in osteoblasts – cell-based, Clone20 osteoblasts, firefly luciferase, cherry-picked, dose response (AID 624132); format: functional;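 also: firefly luciferase luminescence from reporter carrying the Shn3 3'UTR in osteoblasts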
[10] = molecular target: T1, Short transient receptor potential channel 4; assay: block of DAMGO-driven TRPC4 calcium entry – cell-based, HEK293 TRPC4/mu-opioid, Fluo-4 calcium, dose response (AID 434942); format: functional;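 also: potency of inhibitors blocking the TRPC4 calcium response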
[11] = THP-1 cell cytotoxicity, dose response, cytotoxicity control for non-replicating M. tuberculosis project (AID 489025); format: functional
cells = format: functional
[12] = non-specific 3'UTR reporter inhibition in Clone20-Shn3RL – cell-based, Renilla luciferase, cherry-picked, counter-screen for Shn3 inhibitor project, dose response (AID 624133); format: functional
[13] = molecular target: T2, Calpain-2 catalytic subunit (Sus scrofa, UniProt P43367); assay: m-calpain protease blockers, concentration series – biochemical, fluorogenic peptide substrate, dose response (AID 1420); format: functional
T2 sequence (P43367 whole entry): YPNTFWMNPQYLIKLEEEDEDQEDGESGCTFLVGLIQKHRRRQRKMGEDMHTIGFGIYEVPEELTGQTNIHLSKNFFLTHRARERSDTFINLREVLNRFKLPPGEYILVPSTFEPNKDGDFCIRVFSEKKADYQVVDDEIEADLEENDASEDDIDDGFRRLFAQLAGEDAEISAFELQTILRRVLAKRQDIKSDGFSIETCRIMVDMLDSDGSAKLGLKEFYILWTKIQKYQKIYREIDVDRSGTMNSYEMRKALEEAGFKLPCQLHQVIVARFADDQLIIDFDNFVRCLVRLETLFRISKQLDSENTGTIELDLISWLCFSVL

HEK293 [14] = assay: cells; settings: Homo sapiens
HEK293 [15] = assay: cells; settings: Homo sapiens; remark: listed apart in the source
HeLa = assay: ATP-based viability loss in HeLa cells – cell-based, CellTiter-Glo luminescence, cherry-pick samples, cytotoxicity control for MITF activator project, dose response (AID 540259); format: functional; settings: Homo sapiens
[16] = molecular target: Glucose-6-phosphate 1-dehydrogenase (Homo sapiens, UniProt P11413); assay: inhibition of Homo sapiens G6PD, dose series – biochemical, fluorescence, selectivity assay for P. falciparum G6PD inhibitor project, dose response (AID 504792); format: functional
Glucose-6-phosphate 1-dehydrogenase, sequence (P11413 whole entry): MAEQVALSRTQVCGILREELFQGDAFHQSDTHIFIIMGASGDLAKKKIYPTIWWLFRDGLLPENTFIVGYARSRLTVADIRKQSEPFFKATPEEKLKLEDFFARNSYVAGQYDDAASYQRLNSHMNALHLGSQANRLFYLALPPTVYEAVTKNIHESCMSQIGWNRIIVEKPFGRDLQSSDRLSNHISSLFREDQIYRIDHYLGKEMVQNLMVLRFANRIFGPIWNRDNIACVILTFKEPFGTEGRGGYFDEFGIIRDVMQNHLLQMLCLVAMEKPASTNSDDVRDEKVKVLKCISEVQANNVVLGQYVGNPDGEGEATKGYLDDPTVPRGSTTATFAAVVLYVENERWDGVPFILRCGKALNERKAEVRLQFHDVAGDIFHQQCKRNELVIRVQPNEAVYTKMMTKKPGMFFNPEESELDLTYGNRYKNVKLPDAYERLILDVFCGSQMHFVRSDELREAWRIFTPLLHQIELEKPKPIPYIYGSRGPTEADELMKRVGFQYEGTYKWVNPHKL

## Cc1ccccc1OCC(O)Cn1c(=N)n(Cc2ccccc2)c2ccccc21 (stereo not given)
[1]
  EC50: 2.75 µM (active)
[2]
  EC50: 3.35 µM (active)
[3]
  EC50: > 92.5 µM (inactive)
[4]
  EC50: > 30 µM (not active)
[5]
  CC50: 19.9 µM (active)
Mu-type opioid receptor
  EC50: > 92.5 µM (inactive)
[6]
  EC50: > 92.5 µM (inactive)
[7]
  CC50: 8.06 µM (active)
[8]
  AC50: 11.2 µM (active)
[9]
  AC50: 2.25 µM (active)
[10]
  EC50: 1.06 µM (active)
[11]
  CC50: 7.48 µM (active)
cells
  IC50: 18.5 µM (active)
[12]
  AC50: 1.49 µM (active)

## Cn1c(=O)n(C)c2cc(S(=O)(=O)N3CCCc4ccccc43)ccc21
[13]
  IC50: 7.05 µM (not active)
HEK293 [14]
  EC50: > 59.6 µM (inactive)
HEK293 [15]
  EC50: > 59.6 µM (inactive)

## COc1ccc(-c2nnc(-c3ccc4ccccc4c3)o2)cc1
HeLa
  AC50: > 350 µM (inactive)

## Nc1ccc(CSc2ccc(Cl)cc2)c(Cl)c1
HeLa
  AC50: 75.6 µM (active)

## CCOc1ccc(N(CC(=O)N/N=C/c2cc([N+](=O)[O-])ccc2Cl)S(C)(=O)=O)cc1
[16]
  IC50: > 80 µM (inactive)
